Test results as given in patent EP3319959B1, “HETERO-HALO INHIBITORS OF HISTONE DEACETYLASE” (Alkermes, Inc., priority 2015, dated 2017).
pIC50: −log10 of the molar value.

system: recombinant human HDACs; assay: HDAC enzymatic assay (LabChip capillary electrophoresis); type: biochemical; conditions: 5 nM HDAC enzyme, 1 uM substrate, 5 hours pre-incubation, 17 hours reaction at 25°C; isoform not given
Description: All recombinant human HDACs were purchased from BPS Bioscience. The substrate, FAM-TSRHK(AC)KL-CONH, was synthesized at NanoSyn. Final assay reactions contained 100 mM HEPES (pH 7.5), 50 mM KCl, 0.1% BSA, 0.01% Triton X-100, 1% DMSO, 1 uM substrate and 5 nM HDAC enzyme. Enzyme and compounds were pre-incubated at 25°C for 5 hours and reactions were initiated by addition of substrate. 10 uL reactions were incubated for 17 hours at 25°C and terminated by the addition of 40 uL of buffer containing 100 mM HEPES (pH 7.5), 0.1% BSA, 0.01% Triton X-100 and 0.05% SDS. Substrate and product peptides present in each sample were separated electrophoretically using the LabChip 3000 capillary electrophoresis instrument. Change in the relative fluorescence intensity of the substrate and product peaks reflects enzyme activity. Reaction progress was determined as the product to sum ratio (PSR): P/(S+P), where P is the peak height of the product peptide and S is the peak height of the substrate peptide. Reactions were performed in duplicate at 12 concentrations, (3X serial dilutions starting at 30 uM). IC50 values were calculated using a 4 Parameter Logistic Model.

| SMILES | pIC50 |
| --- | --- |
| Nc1ccc(-c2ccco2)nc1NC(=O)N1CC2CN(CCF)CC2C1 (centres unmarked) [Compound 174] | < 5.30 |
| Nc1ccc(-c2ccccc2)nc1NC(=O)C1CCN(Cc2ccccc2F)CC1 [Compound 379] | < 5.30 |
| CN1CC(CN2CC3CN(C(=O)Nc4nc(-c5ccc(F)cc5)ccc4N)CC3C2)C1 (centres unmarked) [Compound 256] | 5.30 to 6.30 |
| Nc1ccc(-c2ccc(F)cc2)nc1NC(=O)N1CC2CN(CCF)CC2C1 (centres unmarked) [Compound 183] | < 5.30 |
| CN1CC2CN(C(=O)Nc3nc(-c4ccc(F)cc4)ccc3N)CC2C1 (centres unmarked) [Compound 201] | < 5.30 |
| Nc1ccc(-c2ccc(F)cc2)nc1NC(=O)C1CC2CCC(C1)O2 (centres unmarked) [Compound 406] | < 5.30 |
| Nc1cn(-c2ccccc2)nc1NC(=O)N1CC2CCCC2C1 (centres unmarked) [Compound 384] | < 5.30 |
| Nc1ccc(-c2ccc(F)cc2)nc1NC(=O)N1Cc2cccc(N3CCCC3)c2C1 [Compound 249] | < 5.30 |
| CN1CCC(COC(=O)Nc2nc(-c3cccnc3)ccc2N)CC1 [Compound 375] | < 5.30 |
| CN1CCCC2(CCN(C(=O)Nc3nc(-c4cccnc4)ccc3N)C2)C1 (centres unmarked) [Compound 211] | < 5.30 |
| Nc1ccc(-c2ccc(F)cc2)nc1NC(=O)N1CC2CN(CC3CCOCC3)CC2C1 (centres unmarked) [Compound 235] | < 5.30 |
| Nc1ccc(-c2ccccc2)nc1NC(=O)C1CCN(Cc2cccnc2)CC1 [Compound 377] | < 5.30 |
| Nc1ccc(-n2cccn2)nc1NC(=O)C1CCN(Cc2ccccc2F)CC1 [Compound 370] | < 5.30 |
| Nc1cn(-c2ccccc2)nc1NC(=O)N1CCC2(CCOCC2)C1 [Compound 407] | < 5.30 |
| Nc1ccc(-c2cccnc2)nc1NC(=O)N1Cc2cc(F)cnc2C1 [Compound 218] | < 5.30 |
| Nc1cn(-c2ccccc2)nc1NC(=O)N1CCN(C2COC2)CC1 [Compound 356] | < 5.30 |
| Nc1ccc(-c2ccco2)nc1NC(=O)C1CN(c2ccccn2)C1 [Compound 193] | < 5.30 |
| CN(C)Cc1ccc2c(c1)CN(C(=O)Nc1nc(-c3ccc(Cl)s3)ccc1N)C2 [Compound 401] | < 5.30 |
| Nc1ccc(-c2ccccc2)nc1NC(=O)C1CN(c2ccccn2)C1 [Compound 195] | < 5.30 |
| Nc1ccc(-n2cccn2)nc1NC(=O)N1CC2CN(CCF)CC2C1 (centres unmarked) [Compound 167] | < 5.30 |
| Nc1cnc(-c2ccc(F)cc2)cc1NC(=O)N1Cc2cnc(N3CCC3)cc2C1 [Compound 254] | 5.30 to 6.30 |
| Nc1ccc(-c2cccnc2)nc1NC(=O)N1CCC2(CCCNC2)C1 (centres unmarked) [Compound 171] | < 5.30 |
| COc1cccc(CN2CCCC3(CCN(C(=O)Nc4nn(-c5ccc(F)cc5)cc4N)C3)C2)c1 (centres unmarked) [Compound 124] | < 5.30 |
| CN(C)[C@H]1[C@@H]2CN(C(=O)Nc3nc(-c4ccc(F)cc4)ccc3N)C[C@@H]21 [Compound 242] | < 5.30 |
| CC(=O)N1CCC(C(=O)Nc2nn(-c3ccccc3)cc2N)CC1 [Compound 358] | < 5.30 |

| SMILES | pIC50 |
| --- | --- |
| Cn1cc(CN2CCCC3(CCN(C(=O)Nc4nn(-c5ccc(F)cc5)cc4N)C3)C2)cn1 (centres unmarked) [Compound 123] | < 5.30 |
| Nc1ccc(-c2ccco2)nc1NC(=O)N1CC2CN(Cc3ccccc3F)CC2C1 (centres unmarked) [Compound 175] | < 5.30 |
| Nc1cn(-c2ccccc2)nc1NC(=O)C1CCNCC1 [Compound 357] | < 5.30 |
| CN1CCC(C(=O)Nc2nn(-c3ccccc3)cc2N)CC1 [Compound 354] | < 5.30 |
| Nc1ccc(-c2ccc(F)cc2)nc1NC(=O)N1Cc2cnc(C3CC3)cc2C1 [Compound 255] | 6.30 to 7.00 |
| Nc1ccc(-n2cccn2)nc1NC(=O)N1CC2CN(Cc3ccccc3F)CC2C1 (centres unmarked) [Compound 177] | < 5.30 |
| Nc1ccc(-c2ccccc2)nc1NC(=O)N1CCn2ccnc2C1 [Compound 197] | < 5.30 |
| Nc1ccc(-c2ccc(F)cc2)nc1NC(=O)N1CCC(C(F)(F)F)C1 (centres unmarked) [Compound 390] | 5.30 to 6.30 |
| COc1ccc(-c2ccc(N)c(NC(=O)N3Cc4cc(F)cnc4C3)n2)cc1 [Compound 187] | 5.30 to 6.30 |
| CN1CCN(Cc2cccc3c2CN(C(=O)Nc2nc(-c4ccc(F)cc4)ccc2N)C3)CC1 [Compound 178] | < 5.30 |
| Nc1ccc(-c2cccnc2)nc1NC(=O)C1CCN(Cc2ccccc2F)CC1 [Compound 378] | < 5.30 |
| CC(=O)N1CCN(C(=O)Nc2nn(-c3ccccc3)cc2N)CC1 [Compound 360] | < 5.30 |
| Nc1ccc(-c2ccc(F)cc2)nc1NC(=O)N1CCN2CCCC2C1 (centres unmarked) [Compound 224] | < 5.30 |
| CN1CCC(N2CC3CN(C(=O)Nc4nc(-c5ccc(F)cc5)ccc4N)CC3C2)CC1 (centres unmarked) [Compound 169] | 5.30 to 6.30 |
| CN1CCn2cc(C(=O)Nc3nc(-c4ccccc4)ccc3N)nc2C1 [Compound 206] | 5.30 to 6.30 |
| Nc1ccc(-c2ccc(F)cc2)nc1NC(=O)[C@H]1[C@@H]2CN(C3CCOCC3)C[C@@H]21 (stereo in doubt) [Compound 264] | < 5.30 |
| CC(=O)N1CCC(C(=O)Nc2nc(-c3ccccc3)ccc2N)CC1 [Compound 380] | < 5.30 |
| Nc1cn(-c2ccccc2)nc1NC(=O)C1CCN(C2COC2)CC1 [Compound 359] | < 5.30 |
| CN1CC(C(=O)Nc2nc(-c3ccc(F)cc3)ccc2N)C1 [Compound 204] | < 5.30 |
| Cn1cc(CN2CCCC3(CCN(C(=O)Nc4nc(-c5ccc(F)cc5)ccc4N)C3)C2)cn1 (centres unmarked) [Compound 223] | < 5.30 |
| Nc1ccc(-c2ccc(F)cc2)nc1NC(=O)N1CC2CC(N3CC(F)C3)CC2C1 (centres unmarked) [Compound 188] | 5.30 to 6.30 |
| Nc1ccc(-c2cccnc2)nc1NC(=O)N1CCCC1 [Compound 221] | < 5.30 |
| Cc1ccc(C2CN(C(=O)Nc3nc(-c4ccc(F)cc4)ccc3N)C2)cc1 [Compound 170] | 5.30 to 6.30 |
| Nc1ccc(-c2ccc(F)cc2)nc1NC(=O)C1CN(c2ccccn2)C1 [Compound 192] | < 5.30 |

Next, values leading:

| pIC50 | SMILES |
| --- | --- |
| 6.30 to 7.00 | Nc1ccc(-c2ccc(F)cc2)nc1NC(=O)N1Cc2cc(N3CCC3)cnc2C1 [Compound 157] |
| 5.30 to 6.30 | Nc1ccc(-c2cccnc2)nc1NC(=O)c1nc2c(s1)CCN(CCF)C2 [Compound 164] |
| 5.30 to 6.30 | CN(C)CCN1CC2CN(C(=O)Nc3nc(-c4ccc(F)cc4)ccc3N)CC2C1 (centres unmarked) [Compound 166] |
| 5.30 to 6.30 | COc1ccc(-c2ccc(N)c(NC(=O)N3Cc4ccncc4C3)n2)cc1 [Compound 173] |
| 5.30 to 6.30 | Nc1ccc(-c2ccccc2)nc1NC(=O)c1cn2c(n1)CNCC2 [Compound 208] |
| 6.30 to 7.00 | Nc1ccc(-c2ccc(F)cc2)nc1NC(=O)N1Cc2cc(N3CCOCC3)cnc2C1 [Compound 158] |
| 6.30 to 7.00 | CN1CC(Cn2cc3c(n2)CN(C(=O)Nc2nc(-c4ccc(F)cc4)ccc2N)C3)C1 [Compound 245] |
| 6.30 to 7.00 | CN1CCC(c2ccc3c(c2)CN(C(=O)Nc2nn(-c4ccccc4)cc2N)C3)CC1 [Compound 383] |
| 5.30 to 6.30 | Nc1ccc(-c2ccc(F)cc2)nc1NC(=O)N1CC2CC(NC3COC3)CC2C1 (centres unmarked) [Compound 172] |
| 5.30 to 6.30 | Nc1ccc(-n2cccn2)nc1NC(=O)N1Cc2cc(F)cnc2C1 [Compound 185] |
| 5.30 to 6.30 | Nc1ccc(-c2cccnc2)nc1NC(=O)N1Cc2nccnc2C1 [Compound 214] |
| 6.30 to 7.00 | CN(C)Cc1ccc2c(c1)CN(C(=O)Nc1nc(-c3cccs3)ccc1N)C2 [Compound 409] |
| 6.30 to 7.00 | Nc1ccc(-c2ccc(F)cc2)nc1NC(=O)N1Cc2cnc(N3CCC3)cc2C1 [Compound 147] |
| 6.30 to 7.00 | CN(C)Cc1ccc2c(c1)CN(C(=O)Nc1nn(-c3ccccc3)cc1N)C2 [Compound 351] |
| 6.30 to 7.00 | COc1cc2c(cn1)CN(C(=O)Nc1nc(-c3ccc(F)cc3)ccc1N)C2 [Compound 260] |
| 5.30 to 6.30 | COCc1ccc2c(c1)CN(C(=O)Nc1nc(-c3cccnc3)ccc1N)C2 [Compound 393] |

| pIC50 | SMILES |
| --- | --- |
| 6.30 to 7.00 | CC(O)c1ccc2c(c1)CN(C(=O)Nc1nc(-c3ccc(F)cc3)ccc1N)C2 (centres unmarked) [Compound 394] |
| 5.30 to 6.30 | Cc1cnc(C(=O)Nc2nn(-c3ccccc3)cc2N)s1 [Compound 126] |
| 5.30 to 6.30 | Nc1ccc(-c2ccc(F)cc2)nc1NC(=O)N1C[C@@H]2[C@@H](CO)[C@@H]2C1 [Compound 238] |
| 5.30 to 6.30 | Nc1ccc(-c2ccc(F)cc2)nc1NC(=O)N1CC2COCC2C1 (centres unmarked) [Compound 392] |
| 5.30 to 6.30 | Nc1ccc(-c2ccc(OC(F)F)cc2)nc1NC(=O)N1CCCC1 [Compound 232] |
| 5.30 to 6.30 | Nc1ccc(-c2ccco2)nc1NC(=O)N1Cc2ccncc2C1 [Compound 372] |
| 5.30 to 6.30 | CN(C1COC1)C1CC2CN(C(=O)Nc3nc(-c4ccc(F)cc4)ccc3N)CC2C1 (centres unmarked) [Compound 248] |
| 6.30 to 7.00 | Nc1ccc(-c2ccc(F)cc2)nc1NC(=O)N1Cc2cccc(F)c2C1 [Compound 259] |
| 5.30 to 6.30 | Nc1ccc(-c2ccc(F)cc2)nc1NC(=O)N1CC2CN(Cc3ccccc3F)CC2C1 (centres unmarked) [Compound 176] |
| 6.30 to 7.00 | COCc1ccc2c(c1)CN(C(=O)Nc1nc(-c3ccc(F)cc3)ccc1N)C2 [Compound 396] |
| 6.30 to 7.00 | CN1CCN(c2ccc3c(c2)CN(C(=O)Nc2nc(-c4ccc(F)cc4)ccc2N)C3)CC1 [Compound 374] |
| 6.30 to 7.00 | CN1CCN(Cc2cnc3c(c2)CN(C(=O)Nc2nc(-c4ccc(F)cc4)ccc2N)C3)CC1 [Compound 168] |
| 6.30 to 7.00 | CN1CCc2sc(C(=O)Nc3nc(-c4ccc(F)cc4)ccc3N)nc2C1 [Compound 153] |
| 6.30 to 7.00 | CN1CC(n2cc3c(n2)CN(C(=O)Nc2nc(-c4ccc(F)cc4)ccc2N)C3)C1 [Compound 247] |
| 6.30 to 7.00 | Nc1ccc(-c2ccc(F)cc2)nc1NC(=O)N1Cc2ccc(CN3CCC(C(F)(F)F)C3)cc2C1 (centres unmarked) [Compound 408] |
